This is an account of results in US10167299B2, “1-(3-aminopropyl) substituted cyclic amine compounds, preparation method therefor, and pharmaceutical compositions and uses thereof” (SHANGHAI INSTITUTE OF MATERIA MEDICA, CHINESE ACADEMY OF …, priority 2013, dated 2019).

A short description of data set [1]: Cytotoxicity (CC50) in TZM-bl cells. The data set is classed as cell-based. Conditions: human.
The test system of data set [2] is HIV-1SF162 virus strain. The data set can be described thus: Inhibition activity on TZM-bl cells infected with HIV-1SF162. Conditions: for EC50: Human immunodeficiency virus 1, TZM-bl; for therapeutic index (TI): TZM-bl cells infected with HIV-1SF162.
For data set [3], the target named is CCR5 (Homo sapiens (Human), UniProt P51681). Nature of the data set: Calcium flux inhibition experiment. The data set is classed as cell-based. Conditions: for calcium influx inhibition effect in words, versus positive control compounds: conclusion from Table 1. The text has this:
Experiment apparatus: FlexStation II
Experiment materials: HEK293/CCR5-Gα16 cell line, Fluo-4calcium dye (fluorescent-4 calcium ion dye) and FlexStation instrument.
Experiment theory: Activation of the receptor can cause the activation of Gα16 protein, thereby activating phospholipase C (PLC) to generate IP3 and DAG by establishing CCR5 and Ga16 co-transfected cell line. IP3 can bind to IP3 receptors on the endoplasmic reticulum and mitochondria in a cell, which can cause the release of intracellular calcium. Thus, determination of changes in intracellular calcium can be used as a method to detect CCR5 activation state. Fluo-4/AM is a fluorescent probe indicator for calcium used to measure calcium ion. As a non-polar lipid-soluble compound, after it enters into cells, AM group is dissociated to release Fluo-4 under the effect of cell lipolysis enzyme. Fluo-4 is a polar molecule and not easy to go through the lipid bilayer membrane, therefore it can stay within the cells for a long time. Ultimately, the level of activated Ga protein can be reflected by measuring the excited fluorescence intensity. If the screened compound can activate CCR5, it can greatly increase the calcium flux reaction; on the contrary, if the screened compound can antagonize CCR5, it can greatly reduce calcium flux reaction.
1. HEK293 cells which can stably express CCR5 were inoculated in a 96-well plate and incubated overnight.
2. The medium in each well into which cells were innoculated was removed and 40 μl/well of freshly prepared dye was added. The plate was placed in a 37° C. incubator and incubated for 40 minutes at constant temperature.
3. The medicament to be determined was diluted with calcium buffer to eight concentration gradients, which is 1×10^−4 M, 1×10^−5 M, 1×10^−6 M, 1×10^−7 M, 1×10^−8 M, 1×10^−9 M, 1×10^−10 M, and 1×10^−11 M, respectively, and homogeneously mixed.
4. The dye was removed. Freshly prepared calcium buffer was used to wash for one time, 50 μl of calcium buffer was added.
5. FlexStation II was used for detection. 25 μl of calcium buffer containing the medicament to be determined was added automatically from the 15th second.
(In general: Calcium assays in cells follow changes in intracellular calcium, usually with a dye or a luminescent sensor.)

Setting [4] is: TZM-bl cells (Table 3), read-out: CC50.
Setting [5] is: HEK293/CCR5-Gα16 cell line, calcium flux, read-out: CCR5 IC50.

pIC50: −log10 of the molar value. ≈ marks a conversion by molar mass, not a printed value. Like-named read-outs stand apart in the source and are kept apart here.

CCR5, sequence (P51681 whole entry): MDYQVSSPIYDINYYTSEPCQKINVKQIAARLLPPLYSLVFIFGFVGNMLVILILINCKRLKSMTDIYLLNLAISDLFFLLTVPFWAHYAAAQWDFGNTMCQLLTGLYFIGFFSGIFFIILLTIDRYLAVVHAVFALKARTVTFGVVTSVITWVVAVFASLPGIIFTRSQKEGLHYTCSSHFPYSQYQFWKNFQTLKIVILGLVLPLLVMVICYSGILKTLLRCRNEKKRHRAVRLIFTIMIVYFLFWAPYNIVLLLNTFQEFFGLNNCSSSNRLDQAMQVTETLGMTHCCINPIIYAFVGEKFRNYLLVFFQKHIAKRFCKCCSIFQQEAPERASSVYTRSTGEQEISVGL

One may read the CC50 as the concentration that lowers cell viability or growth by half. As a reminder, the EC50 is the concentration giving half of the maximal effect. In turn, `Cc1nnc(C(C)C)n1C1CC2CCC(C1)N2CC[C@H](NC(=O)C1CCC(F)(F)CC1)c1csc2ccccc12` (stereo partly drawn) [Compound 27, 4,4-difluoro-N-[(1S)-3-[exo-3-(3-isopropyl-5-methyl-4H-1,2,4-triazol-4-yl)-8-azabicyclo[3.2.1]octane-8-yl]-1-(benzothiophen-3-yl)propyl]cyclohexane-1-carboxamide] came in with a cytotoxic concentration (CC50) at 3 days in data set [1] of 96.1 mg/L (≈ 169 µM). For the same compound, in data set [2], the half-maximal effective concentration (EC50) was found to be 0.511 mg/L (≈ 0.897 µM) and the “therapeutic index (TI)” value stood at 188.14.

As to `CC(=O)N[C@@H](CCN1C2CCC1CC(n1c(C)nnc1C(C)C)C2)c1csc2ccccc12` (stereo partly drawn) [Compound 28, N-[(1S)-3-[exo-3-(3-isopropyl-5-methyl-4H-1,2,4-triazol-4-yl)-8-azabicyclo[3.2.1]octane-8-yl]-1-(benzothiophen-3-yl)propyl]acetamide], the CC50 at 3 days in data set [1] (setting [4]) was above 200 mg/L. In data set [2], this compound came in with an EC50 above 40 mg/L.

In general, pIC50 refers to the negative decadic logarithm of the IC50, by convention in mol/L. In the case of `Cc1ccc([C@H](CCN2C3CCC2CC(n2c(C)nnc2C(C)C)C3)NC(=O)C2CCCCC2)s1` (stereo partly drawn) [Compound 30, N-[(1S)-3-[exo-3-(3-isopropyl-5-methyl-4H-1,2,4-triazol-4-yl)-8-azabicyclo[3.2.1]octane-8-yl]-1-(5-methylthiophen-2-yl)propyl]cyclohexane-1-carboxamide], the pIC50 in data set [3] (setting [5]) was 7.62. In data set [1], the half-maximal cytotoxic concentration (CC50) was above 200 mg/L. In data set [2], the midpoint of the response, the EC50, lay at 0.06 mg/L (≈ 0.121 µM) and the “therapeutic index (TI)” value is reported as above 2150.54.

Turning to `Cc1ccc([C@H](CCN2C3CCC2CC(n2c(C)nnc2C(C)C)C3)NC(=O)C2CCCC2)s1` (stereo partly drawn) [Compound 31, N-[(1S)-3-[exo-3-(3-isopropyl-5-methyl-4H-1,2,4-triazol-4-yl)-8-azabicyclo[3.2.1]octane-8-yl]-1-(5-methylthiophen-2-yl)propyl]cyclopentane-1-carboxamide], in data set [3] (setting [5]), the pIC50 was 8.01. Moreover, in data set [3], the “calcium influx inhibition effect in words, versus positive control compounds” value was “comparable to the positive control compounds”. Further, in data set [1], the 50% cytotoxic concentration (CC50) was above 200 mg/L. In data set [2], the EC50 is 0.033 mg/L (≈ 0.0682 µM) and the “therapeutic index (TI)” value is given as above 5714.29.

In the case of `Cc1ccc([C@H](CCN2C3CCC2CC(n2c(C)nnc2C(C)C)C3)NC(=O)c2ccccc2)s1` (stereo partly drawn) [Compound 32, N-[(1S)-3-[exo-3-(3-isopropyl-5-methyl-4H-1,2,4-triazol-4-yl)-8-azabicyclo[3.2.1]octane-8-yl]-1-(5-methylthiophen-2-yl)propyl]benzamide], the negative-log IC50 (pIC50) in data set [3] (setting [5]) was 8.08. Further, in data set [3], the “calcium influx inhibition effect in words, versus positive control compounds” value was “comparable to the positive control compounds”. This compound had a half-maximal cytotoxic concentration (CC50) in data set [1] above 200 mg/L. Also, the 50% effective concentration (EC50) in data set [2] was above 40 mg/L.

With `Cc1ccc([C@H](CCN2C3CCC2CC(n2c(C)nnc2C(C)C)C3)NC(=O)Cc2ccc(F)cc2)s1` (stereo partly drawn) [Compound 33, 4-fluoro-N-[(1S)-3-[exo-3-(3-isopropyl-5-methyl-4H-1,2,4-triazol-4-yl)-8-azabicyclo[3.2.1]octane-8-yl]-1-(5-methylthiophen-2-yl)propyl]phenylacetamide], in data set [3] (setting [5]), the negative logarithm of the IC50 (pIC50) is 7.60. In addition, the cytotoxic concentration (CC50) in data set [1] was above 200 mg/L. Also, in data set [2], the EC50 turned out to be 0.147 mg/L (≈ 0.281 µM) and the “therapeutic index (TI)” value is above 328.95.

As for `Cc1nnc(C(C)C)n1C1CC2CCC(C1)N2CC[C@H](NC(=O)C1CCCCC1)c1ccc(F)nc1` (stereo partly drawn) [Compound 35], the negative logarithm of the IC50 (pIC50) in data set [3] (setting [5]) is 6.57. In data set [1], the CC50 was above 200 mg/L. This compound returned an EC50 in data set [2] above 40 mg/L.

For the compound `Cc1nnc(C(C)C)n1C1CC2CCC(C1)N2CC[C@H](NC(=O)C1CCCC1)c1ccc(F)nc1` (stereo partly drawn) [Compound 36], the negative-log IC50 (pIC50) in data set [3] (setting [5]) was 7.50. Moreover, the CC50 in data set [1] (setting [4]) is above 200 mg/L. In data set [2], the EC50 is above 40 mg/L.

Consider `Cc1nnc(C(C)C)n1C1CC2CCC(C1)N2CC[C@H](NC(=O)C1CCC(F)(F)CC1)c1ccc(F)s1` (stereo partly drawn) [Compound 37, 4,4-difluoro-N-[(1S)-3-[exo-3-(3-isopropyl-5-methyl-4H-1,2,4-triazol-4-yl)-8-azabicyclo[3.2.1]octane-8-yl]-1-(5-fluorothiophen-2-yl)propyl]cyclohexane-1-carboxamide], for which the CC50 at 3 days in data set [1] is above 200 mg/L. In data set [2], a half-maximal effect (EC50) was put at 0.647 mg/L (≈ 1.2 µM) and the “therapeutic index (TI)” value is recorded as above 309.12.

Regarding `Cc1nnc(C(C)C)n1C1CC2CCC(C1)N2CC[C@H](NC(=O)C1CCCCC1)c1ccc(F)s1` (stereo partly drawn) [Compound 38, N-[(1S)-3-[exo-3-(3-isopropyl-5-methyl-4H-1,2,4-triazol-4-yl)-8-azabicyclo[3.2.1]octane-8-yl]-1-(5-fluorothiophen-2-yl)propyl]cyclohexane-1-carboxamide], in data set [3] (setting [5]), the pIC50 is 8.03. Also, the “calcium influx inhibition effect in words, versus positive control compounds” value in data set [3] is listed as “comparable to the positive control compounds”. For the same compound, the CC50 in data set [1] is above 200 mg/L. In data set [2], it took 2.61 mg/L (≈ 5.2 µM) to reach a half-maximal effect (EC50) and the “therapeutic index (TI)” value is above 73.64.

As for `Cc1nnc(C(C)C)n1C1CC2CCC(C1)N2CC[C@H](NC(=O)C1CCCC1)c1ccc(F)s1` (stereo partly drawn) [Compound 39, N-[(1S)-3-[exo-3-(3-isopropyl-5-methyl-4H-1,2,4-triazol-4-yl)-8-azabicyclo[3.2.1]octane-8-yl]-1-(5-fluorothiophen-2-yl)propyl]cyclopentane-1-carboxamide], in data set [3] (setting [5]), the pIC50 was 8.85. Further, the “calcium influx inhibition effect in words, versus positive control compounds” value in data set [3] was “better than the positive control compounds”. Besides, the cytotoxic concentration (CC50) in data set [1] (setting [4]) is above 200 mg/L. Also, in data set [2], the half-maximal effective concentration (EC50) came out at 1.02 mg/L (≈ 2.09 µM) and the “therapeutic index (TI)” value is above 196.08.

For the compound `CC(=O)N[C@@H](CCN1C2CCC1CC(n1c(C)nc3c1CCN(C(C)=O)C3)C2)c1nccs1` (stereo partly drawn) [Compound 118, N-{(1S)-3-[(3-endo)-3-(5-acetyl-2-methyl-4,5,6,7-tetrahydro-1H-imidazo[4,5-c]pyridin-1-yl)-8-azabicyclo[3.2.1]octane-8-yl]-1-(thiazol-2-yl)-propyl}acetamide], the pIC50 in data set [3] (setting [5]) was 7.77. Also, the CC50 in data set [1] (setting [4]) was above 200 mg/L. Also, in data set [2], the EC50 came out at 0.669 mg/L (≈ 1.42 µM) and the “therapeutic index (TI)” value is reported as above 168.03.

`COC(=O)N1CCc2c(nc(C)n2C2CC3CCC(C2)N3CC[C@H](NC(C)=O)c2nccs2)C1` (stereo partly drawn) [Compound 119, Methyl 1-{(endo)-8-[(S)-3-acetamido-3-(thiazol-2-yl)-propyl]-8-azabicyclo[3.2.1]octan-3-yl}-2-methyl-1,4,6,7-tetrahydro-5H-imidazo[4,5-c]pyridine-5-carboxylate]: in data set [3] (setting [5]), the pIC50 was 8.32. The “calcium influx inhibition effect in words, versus positive control compounds” value in data set [3] is reported as “better than the positive control compounds”. In data set [1], this compound gave a CC50 above 200 mg/L. For the same compound, in data set [2], the EC50 amounted to 0.738 mg/L (≈ 1.52 µM) and the “therapeutic index (TI)” value is given as above 270.84.

Take `Cc1nnc(C(C)C)n1C1CC2CCC(C1)N2CC[C@H](NC(=O)Cc1nnn[nH]1)c1ccc(F)s1` (stereo partly drawn) [Compound 163, N-[(1S)-3-[exo-3-(3-isopropyl-5-methyl-4H-1,2,4-triazol-4-yl)-8-azabicyclo[3.2.1]octane-8-yl]-1-(5-fluorothiophen-2-yl)propyl]-2-(1H-tetrazol-5-yl)acetamide]: the negative logarithm of the IC50 (pIC50) in data set [3] (setting [5]) was 7.88.

On to `COc1ccc([C@H](CCN2C3CCC2CC(n2c(C)nnc2C(C)C)C3)NC(=O)CC#N)s1` (stereo partly drawn) [Compound 166, N-[(1S)-3-[exo-3-(3-isopropyl-5-methyl-4H-1,2,4-triazol-4-yl)-8-azabicyclo[3.2.1]octane-8-yl]-1-(5-methoxythiophen-2-yl)propyl]-2-cyanoacetamide], for which, in data set [3], the pIC50 is 8.18 and the “calcium influx inhibition effect in words, versus positive control compounds” value is “better than the positive control compounds”.

For the compound `Cc1nnc(C(C)C)n1C1CC2CCC(C1)N2CC[C@H](NC(=O)CC#N)c1ccc(C#N)s1` (stereo partly drawn) [Compound 167, N-[(1S)-3-[exo-3-(3-isopropyl-5-methyl-4H-1,2,4-triazol-4-yl)-8-azabicyclo[3.2.1]octane-8-yl]-1-(5-cyanothiophen-2-yl)propyl]-2-cyanoacetamide], the negative logarithm of the IC50 (pIC50) in data set [3] is 8.10.

As for `Cc1nnc(C(C)C)n1C1CC2CCC(C1)N2CC[C@H](NC(=O)Cn1cnnn1)c1cccs1` (stereo partly drawn) [Compound 172, N-[(1S)-3-[exo-3-(3-isopropyl-5-methyl-4H-1,2,4-triazol-4-yl)-8-azabicyclo[3.2.1]octane-8-yl]-1-(thiophen-2-yl)propyl]-2-(1H-tetrazol-1-yl)acetamide], in data set [3] (setting [5]), the pIC50 is 8.03. Besides, the “calcium influx inhibition effect in words, versus positive control compounds” value in data set [3] is recorded as “better than the positive control compounds”.

Turning to `CC(=O)N[C@@H](CCN1C2CCC1CC(n1c(C)nc3c1CCN(C(=O)C(C)C)C3)C2)c1cccc(F)c1` (stereo partly drawn) [PF-232798, reference compound], in data set [3] (setting [5]), the pIC50 is 8.08.
